# Source: PubChem BioAssay AID2384 (Southern Research Specialized Biocontainment Screening …, 2010)
# System: S. typhi GFP reporter counter-screen, fluorescence, 4 h
# Assay: S. typhi counter-screen signal inhibition – fluorescence, 4 h, counter-screen for PhoP regulon inhibitor project, dose response (AID 2384)
row,SMILES,IC50
1,CCN1CCCC1CNC(=O)C1CCN(Cc2nc(-c3cccc(Br)c3)oc2C)CC1 (stereo unspecified),33.3 µM
2,O=c1c2c([nH]c3ccccc13)CCCCC2,113 µM
3,CSc1nc2ccc(Cl)cc2[nH]1,73.6 µM
4,c1ccc2c(NCCc3c[nH]c4ccccc34)c3ccccc3nc2c1,36.9 µM
5,CN(C)CCCNc1cc(C(C)(C)C)nc2c(-c3ccccc3)cnn12,31.5 µM
6,NCC/C=C1/c2ccccc2CSc2ccccc21,146 µM
7,O=C(CCNC(=O)c1ccco1)Nc1ccc(SC(F)F)cc1,93.7 µM
8,O=C(N/N=C\c1cccc([N+](=O)[O-])c1O)C1COc2ccccc2O1 (stereo unspecified),11.7 µM
9,O=C(O)c1csc(-c2ccc(Cl)cc2)n1,120 µM
10,CCCCCCCSc1cc(OC)c(CCNC)cc1OC,33.2 µM
11,C[C@H]1COc2c(C3(N)CC3)c(F)cc3c(=O)c(C(=O)O)cn1c23,0.9 µM
12,O=[N+]([O-])c1cc(F)c2cccnc2c1O,7.36 µM
13,Cc1cc2nc(C3CCN(CC4COc5ccccc5O4)CC3)[nH]c2cc1C (stereo unspecified),19.5 µM
14,NC1=NC[C@H](CC2CCCCC2)N1CCc1cc(C(F)(F)F)cc(C(F)(F)F)c1,35.2 µM
15,OCCNCc1cc(Br)ccc1OCc1ccc(Cl)cc1,34.7 µM
16,Cc1ccc2c(c1)c1c(n2CC(O)CNC2CCCCC2)CCCC1 (stereo unspecified),87.1 µM
17,Cc1ccc(OCc2nnc(NC(=O)c3cccnc3)s2)cc1,52 µM
18,COc1ccc(/C=C/C(=O)NC(=S)NNC(=O)c2cnccn2)cc1,30.6 µM
19,CCCCCNc1nc(N2CCCC2)c2c(c1C#N)CCN(C)C2,36.3 µM
20,O=c1[nH]c2ccccc2n2c(=S)[nH]nc12,147 µM
21,CC(Oc1ccc(Br)cc1)c1nc2c3ccccc3nc(=S)n2[nH]1 (stereo unspecified),139 µM
22,O=C(NC(=S)NNC(=O)c1cccs1)c1ccc(Br)o1,60.2 µM

row,SMILES,IC50
1,COc1cc2c3cc1Oc1cc(ccc1O)C[C@@H]1c4c(cc(OC)c(O)c4Oc4ccc(cc4)C[C@H]3N(C)CC2)CCN1C,93.4 µM
2,C#CCOCCOCCOCCNc1nc(N2CCN(C(=O)CCCCCCCCCCNC(=O)[C@H](CCCCN)n3cc(C[C@@H](C)CC)nn3)CC2)nc(N2CCN(C(=O)CCCCCCCCCCNC(=O)[C@H](CCCN=C(N)N)n3cc(C[C@@H](C)CC)nn3)CC2)n1,103 µM
3,CN1C(=O)N2CN(C3CCCCC3)CN3C(=O)N(C)C1C23 (stereo unspecified),110 µM
4,O=C(Oc1c(Cl)cc(Cl)c2cccnc12)c1cccc([N+](=O)[O-])c1,9.26 µM
5,c1ccc(N2CCN(c3nc4ccccc4[nH]3)CC2)nc1,138 µM
6,CC(C)(c1ccccc1)c1ccc(OCCCNCCO)cc1,29 µM
7,OCCN1CCN(CCCN2c3ccccc3Sc3ccc(Cl)cc32)CC1,73.7 µM
8,CNC(CC(=O)c1ccc([N+](=O)[O-])cc1)C(Cl)(Cl)Cl (stereo unspecified),82.7 µM
9,O=c1[nH][nH]c(-c2ccccc2O)c1C(C[N+](=O)[O-])c1ccc(Br)cc1 (stereo unspecified),63 µM
10,Oc1ccc(C2NCc3ccccc3-n3cccc32)cc1Cl (stereo unspecified),89 µM
11,O=S1(=O)CC=C(CSC(=S)NC2CCS(=O)(=O)C2)C1 (stereo unspecified),39.1 µM
12,Clc1ccc(C(c2ccc(Cl)cc2)n2cc[n+](CC(OCc3ccc(Cl)cc3Cl)c3ccc(Cl)cc3Cl)c2)cc1 (stereo unspecified),9.7 µM
13,O=C(Nc1ccc(Cl)cc1)Nc1ccc2c(c1)N1CCN=C1S2,76.3 µM
14,CN(C)CCCN1c2ccccc2CCc2ccc(Cl)cc21,70.5 µM
15,Cc1cc(N2CCC(C)CC2)nc2cccc(O)c12,80.2 µM
16,CC(C(=O)NC1CCS(=O)(=O)C1)N1C(=O)/C(=C/c2ccc(Cl)cc2)SC1=S (stereo unspecified),18.2 µM
17,CC12CN3CC(C)(CN(C1)C3c1ccc(Br)cc1O)C2 (stereo unspecified),143 µM
18,CCCCCc1ccc(OCCCC[n+]2ccccc2)c(CCCCC)c1,36.3 µM
19,OCCCCNCc1ccc(OCc2ccccc2Cl)cc1,86 µM
20,Cc1cc(Cl)c(OCCCNCc2ccccc2)c(Br)c1,37.5 µM
21,Cc1cc(NC(=O)c2ccc3[nH]c(C)c(C)c3c2)ccn1,65.5 µM
22,Nc1nc2ccccc2n1Cc1ccc(Cl)c(Cl)c1,74.7 µM

row,SMILES,IC50
1,Nc1nonc1-n1nnc(C(=O)N/N=C/c2cc(Br)ccc2O)c1CSC1=NCCS1,24.1 µM
2,C#CCOCCOCCOCCNc1nc(N2CCN(C(=O)CCCCCCCCCCNC(=O)Cn3cc(CCCCCN)nn3)CC2)nc(N2CCN(C(=O)CCCCCCCCCCNC(=O)[C@@H]([C@H](C)O)n3cc(C)nn3)CC2)n1,115 µM
3,COc1ccc2c(c1OC)C(=O)N(c1ccc(C)cc1)C2=O,105 µM
4,CCn1ncc(/C=N\NC(=O)c2csc3ccccc23)c1C,124 µM
5,Nc1cccc2c(=O)c3ccccc3[nH]c12,37.6 µM
6,O=[N+]([O-])c1cc(O)c2ncccc2c1,15.9 µM
7,CCc1ccc(Nc2n[n+](-c3ccccc3)c(-c3c(Cl)cccc3Cl)s2)cc1,41.3 µM
8,CCOC(=O)Cn1c(=N)n(CCOc2ccc3ccccc3c2)c2ccccc21,37.2 µM
9,Cc1cc(N/N=C/c2ccc(O)cc2)c2cccc(C)c2n1,47.5 µM
10,CCCCCCCCCCCCCCCC[n+]1ccc(/C=N/O)cc1,36.9 µM
11,O=C(Cc1ccccc1)NNC(=S)NC(=O)c1cccs1,32.3 µM
12,c1ccc(CN2CCN(c3ncnc4c3[nH]c3ccccc34)CC2)cc1,73.8 µM
13,O=C(CN1CC[n+]2c(-c3cccs3)csc21)c1ccc(-c2ccccc2)cc1,20.3 µM
14,CC[C@H]1OC(=O)[C@H](C)[C@@H](O[C@H]2C[C@@](C)(OC)[C@@H](O)[C@H](C)O2)[C@H](C)[C@@H](O[C@@H]2O[C@H](C)C[C@H](N(C)C)[C@H]2O)[C@](C)(OC)C[C@@H](C)C(=O)[C@H](C)[C@@H](O)[C@]1(C)O,29.7 µM
15,O=C(/C=C(\O)c1ccccc1)C(=O)NNC(=O)c1ccccc1,44.5 µM
16,CN(C)c1ccc(O)c2c1CC1CC3C(N(C)C)C(=O)C(C(N)=O)=C(O)[C@@]3(O)C(=O)C1=C2O (stereo partly specified),1.69 µM
17,CCCOc1ccc(S(=O)(=O)n2cc(F)c(=O)[nH]c2=O)cc1,139 µM
18,O=C(Nc1csc(Cl)c1)c1ccccc1,70.6 µM
19,NC[C@@H]1O[C@H](C23CC4CC(CC(C4)C2)C3)Cc2c1ccc(O)c2O,27 µM
20,Cc1ccc(C(=O)N/C(=C\c2ccc(-c3ccc(Cl)cc3)o2)C(=O)NCCCN(C)C)cc1,36.4 µM
21,COc1ccccc1CNCCc1ccc(F)cc1,33 µM
22,CN(C)CCCNC(=O)c1ccc(-c2nc(-c3ccc(Cl)cc3)cs2)cc1,19.7 µM

row,SMILES,IC50
1,CCn1cc(C(=O)O)c(=O)c2cc(F)c(N3CCN(C(=S)Nc4ccccc4OC)CC3)cc21,41.1 µM
2,Cc1ccc(C(=O)N/C(=C\c2ccc(-c3ccc(Br)cc3)o2)C(=O)NCCCN(C)C)cc1,37.4 µM
3,COc1ccc(Nc2cc(C)nc(NCc3ccccc3)n2)cc1,38.5 µM
4,COc1ccc(C(=O)NC(=S)NNC(=O)CCc2ccccc2)cc1,138 µM
5,C=CC1=C(C(=O)O)N2C(=O)[C@@H](NC(=O)/C(=N/OCC(=O)O)c3csc(N)n3)[C@H]2SC1,16.5 µM
6,COc1cc(CNCCc2c[nH]c3ccccc23)ccc1OCc1ccc(F)cc1,37.6 µM
7,NC1=NC2=C(CCCC2)C2(CCCCC2)S1,63.8 µM
8,COc1cc(C)c(Cc2cnc(N)nc2N)cc1OC,5.98 µM
9,C#CCOCCOCCOCCNc1nc(N2CCN(C(=O)[C@H](Cc3cc4ccccc4[nH]3)n3cc([C@@H](N)C(C)CC)nn3)CC2)nc(N2CCN(C(=O)[C@H](Cc3cc4ccccc4[nH]3)n3cc([C@@H](N)Cc4ccc(O)cc4)nn3)CC2)n1 (stereo partly specified),18.5 µM
10,CC1CC(=O)c2c(cc3c(-c4c(O)cc(O)c5c(O)c6c(cc45)OC(C)CC6=O)c(O)cc(O)c3c2O)O1 (stereo unspecified),28.6 µM
11,Cc1ccc(C(=O)N/N=C\c2ccc([N+](=O)[O-])s2)cn1,19.8 µM
12,Cc1c(N2C(=O)/C(=C3\C(=O)N(CC(=O)O)c4ccccc43)SC2=S)c(=O)n(-c2ccccc2)n1C,95.2 µM
13,CCc1ccc(CNCc2ccc(OCC(O)CN(C)Cc3ccccc3)cc2)nc1 (stereo unspecified),67.6 µM
14,C[C@@H](NC(=O)/C(C#N)=C/c1ccc(O)c(O)c1)c1ccccc1,84.3 µM
15,O=C(/C=C/c1cc(Br)ccc1O)c1ccco1,52.5 µM
16,Cc1ccc(Nc2cc(C)nn2-c2nc(C)cc(=O)[nH]2)cc1,11.2 µM
17,CC(C)(C)/C(O)=C/c1nc2cc(Cl)ccc2oc1=O,24.2 µM
18,C#CCOCCOCCOCCNc1nc(N2CCN(C(=O)CCCCCCCCCCNC(=O)[C@H](CCCCN)n3cc(CCO)nn3)CC2)nc(N2CCN(C(=O)CCCCCCCCCCNC(=O)[C@H](CCCCN)n3cc(C[C@@H](C)CC)nn3)CC2)n1,20 µM
19,O=c1ccc2cc3c([nH]c4ccc(Br)cc43)oc-2c1O,18.2 µM
20,O=C(CCN1CCOCC1)c1ccc(Br)cc1,72.5 µM
21,CCN1CCCC1Cn1cnc2c([nH]c3ccc(Cl)cc32)c1=O (stereo unspecified),118 µM
22,CNC[C@@H](CC1CCCCC1)NC[C@H](CC(C)C)NCCc1cccc(C(F)(F)F)c1,18.8 µM

row,SMILES,IC50
1,C/C(=N\Nc1ccc2nncn2n1)c1ccccn1,37.2 µM
2,CCOC(=O)C1=C(C(C)=O)C(c2cccnc2)C(C#N)=C(N)O1 (stereo unspecified),57.5 µM
3,COC(=O)C(C)NC(=S)N1CCN(c2c(F)cc3c(=O)c(C(=O)O)cn(C4CC4)c3c2OC)CC1C (stereo unspecified),39.6 µM
4,CCn1nnc(NC(=O)c2ccc([N+](=O)[O-])o2)n1,80 µM
5,O=C(C[n+]1cc(-c2ccc(Cl)c(Cl)c2)n2c1CCC2)N1c2ccccc2Sc2ccccc21,19.4 µM
6,CO[C@H]1C=CO[C@@]2(C)Oc3c(C)c(O)c4c(O)c(c(C=NN5CCN(C)CC5)c(O)c4c3C2=O)NC(=O)C(C)=CC=C[C@H](C)[C@H](O)[C@@H](C)[C@@H](O)[C@@H](C)[C@H](OC(C)=O)[C@@H]1C,35.4 µM
7,Cc1ccccc1C(=O)NNC(=S)NC(=O)COc1ccccc1,126 µM
8,O=C(N/N=C\c1ccc(Cl)s1)c1cccs1,90.8 µM
9,COc1ccc2[nH]c3c(C)c4ccncc4c(C)c3c2c1,21.5 µM
10,CNCCC=C1c2ccccc2CCc2ccccc21,117 µM
11,CC[n+]1c(/C=C/N(C)c2ccccc2)n(-c2ccccc2)c2ccc(-c3nc4ccccc4s3)cc21,9.23 µM
12,O=C(N/N=C/c1ccc([N+](=O)[O-])o1)C1CCCC1,37 µM
13,CC1CCc2cc(F)cc3c(=O)c(C(=O)O)cn1c23 (stereo unspecified),15.6 µM
14,Cc1cc([N+](=O)[O-])cc(/C=N\NC(=O)C2COc3ccccc3O2)c1O (stereo unspecified),30.3 µM
15,Fc1cccc(Nc2c3c(nc4ccccc24)CCC3)c1,76.6 µM
16,N=c1c2c(-c3ccccc3)c(-c3ccccc3)n(Cc3ccco3)c2ncn1CCCn1ccnc1,39.4 µM
17,Cc1ccc(-c2csc(N=C(N)N)n2)c(C)c1,46.3 µM
18,O=C(Nc1nnc(-c2ccccn2)o1)c1cccc(Cl)c1,91.9 µM
